Data on 5 molecules can be found in patent publication US10711002B2, “Purine compounds and method for the treatment of cancer” (THE ROYAL INSTITUTION FOR THE ADVANCEMENT OF …, priority 2016, dated 2020).

SMILES strings stand for the structures.

What all share (assay): High-throughput kinase assay
Holding throughout (type): biochemical

One experiment addresses BRAF-ZLYTE-100 (Homo sapiens, UniProt P15056). To be noted: 100 nM; read-out: Percent inhibition of kinase activity in vitro, BRAF-ZLYTE-100. The method, then:
(§1) Screening of Compounds 1-4 against several kinases identified two prominent targets of these compounds as the Aurora A kinase and calcium dependent protein kinase C isoforms α, βI, βII and […] (Tables 1 to 3). IC50s for these two targets were obtained by plotting inhibition levels at 500 nM, 100 nM, 50 nM and 10 nM (FIG. 3). These kinases are directly involved in pathways controlling cell differentiation programs, metastasis signaling, as well as EMT and CSC programming and their overexpression was reported to predict decreased metastasis-free survival.

For a further experiment, the target named is EEF2K (Homo sapiens, UniProt O00418). Particulars: read-out: Percent inhibition of kinase activity in vitro, EEF2K; for inhibition at 0.1 µM: 100 nM; for inhibition at 0.5 µM: 500 nM. How it is done:
as §1

The target in the next experiment is EGFR (ErbB1) (Homo sapiens, UniProt P00533). To be noted: read-out: Percent inhibition of kinase activity in vitro, EGFR (ErbB1); for inhibition at 0.1 µM: 100 nM; for inhibition at 0.5 µM: 500 nM. How it is done: as §1
EGFR (ErbB1), sequence (P00533 25-1210): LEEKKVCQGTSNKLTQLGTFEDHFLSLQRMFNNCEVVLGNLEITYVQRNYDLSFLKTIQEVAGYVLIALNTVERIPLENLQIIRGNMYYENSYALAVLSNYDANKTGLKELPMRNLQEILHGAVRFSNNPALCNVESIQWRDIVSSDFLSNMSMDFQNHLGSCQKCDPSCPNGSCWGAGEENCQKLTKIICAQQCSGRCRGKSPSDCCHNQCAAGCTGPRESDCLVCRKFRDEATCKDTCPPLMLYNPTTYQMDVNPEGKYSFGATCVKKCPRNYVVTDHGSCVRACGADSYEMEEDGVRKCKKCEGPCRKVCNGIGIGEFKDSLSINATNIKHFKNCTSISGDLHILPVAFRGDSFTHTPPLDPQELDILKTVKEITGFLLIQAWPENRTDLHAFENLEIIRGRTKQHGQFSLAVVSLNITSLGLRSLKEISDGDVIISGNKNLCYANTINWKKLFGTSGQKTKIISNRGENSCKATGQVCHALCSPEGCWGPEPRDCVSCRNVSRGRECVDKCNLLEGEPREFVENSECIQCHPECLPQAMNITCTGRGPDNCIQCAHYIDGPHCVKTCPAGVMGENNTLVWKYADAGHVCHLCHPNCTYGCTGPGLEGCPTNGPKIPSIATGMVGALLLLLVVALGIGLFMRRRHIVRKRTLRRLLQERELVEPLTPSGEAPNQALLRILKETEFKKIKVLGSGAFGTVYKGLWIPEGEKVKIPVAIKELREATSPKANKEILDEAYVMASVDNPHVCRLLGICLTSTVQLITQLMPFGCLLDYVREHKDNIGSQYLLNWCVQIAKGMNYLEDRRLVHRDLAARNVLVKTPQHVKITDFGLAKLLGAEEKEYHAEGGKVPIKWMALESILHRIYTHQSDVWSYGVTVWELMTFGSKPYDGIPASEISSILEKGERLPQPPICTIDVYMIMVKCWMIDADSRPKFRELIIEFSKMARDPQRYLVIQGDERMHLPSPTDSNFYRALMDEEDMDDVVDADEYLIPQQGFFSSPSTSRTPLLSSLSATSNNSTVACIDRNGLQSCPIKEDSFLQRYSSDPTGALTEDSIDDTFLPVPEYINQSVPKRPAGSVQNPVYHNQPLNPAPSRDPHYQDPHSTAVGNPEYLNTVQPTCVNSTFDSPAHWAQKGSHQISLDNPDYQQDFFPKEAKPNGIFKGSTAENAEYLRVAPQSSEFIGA
The next experiment addresses ERBB2 (HER2) (Homo sapiens, UniProt P04626). To be noted: 500 nM; read-out: Percent inhibition of kinase activity in vitro, ERBB2 (HER2). How it is done: as §1
In another experiment the target is PIK3CA/PIK3R1 (Homo sapiens, UniProt P42336). Particulars: read-out: Percent inhibition of kinase activity in vitro, PIK3CA/PIK3R1; for inhibition at 0.1 µM: 100 nM; for inhibition at 0.5 µM: 500 nM. How it is done:
as §1

The target of another experiment is PRKCG (PKC gamma) (Homo sapiens, UniProt P05129). Particulars: 50 nM; read-out: Percent inhibition of kinase activity in vitro, PRKCG (PKC gamma). The method, then:
as §1

The target in another experiment is T1, PRKCI (PKC iota) (Homo sapiens, UniProt P41743).
T1 sequence (P41743 1-596): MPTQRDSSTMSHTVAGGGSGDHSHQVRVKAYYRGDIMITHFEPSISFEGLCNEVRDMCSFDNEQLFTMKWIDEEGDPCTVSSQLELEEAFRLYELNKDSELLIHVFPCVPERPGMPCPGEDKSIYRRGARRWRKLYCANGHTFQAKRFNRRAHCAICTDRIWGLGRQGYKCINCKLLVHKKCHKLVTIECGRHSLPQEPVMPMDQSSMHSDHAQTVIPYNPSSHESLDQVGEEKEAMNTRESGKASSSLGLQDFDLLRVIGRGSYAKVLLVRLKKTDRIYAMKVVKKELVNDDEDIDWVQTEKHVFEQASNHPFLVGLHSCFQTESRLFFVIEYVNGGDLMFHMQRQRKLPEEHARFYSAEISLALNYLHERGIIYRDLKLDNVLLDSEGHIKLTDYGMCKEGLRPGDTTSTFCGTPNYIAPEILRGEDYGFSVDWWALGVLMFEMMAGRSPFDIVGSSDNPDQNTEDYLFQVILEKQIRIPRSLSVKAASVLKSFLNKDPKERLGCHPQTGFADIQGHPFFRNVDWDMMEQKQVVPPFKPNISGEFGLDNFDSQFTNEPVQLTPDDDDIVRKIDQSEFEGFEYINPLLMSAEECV
To be noted: 50 nM; read-out: Percent inhibition of kinase activity in vitro, PRKCI (PKC iota). How it is done:
as §1

For a further experiment, the target named is T2, PRKD1 (PKC mu) (Homo sapiens, UniProt Q15139).
T2 sequence (Q15139 1-912): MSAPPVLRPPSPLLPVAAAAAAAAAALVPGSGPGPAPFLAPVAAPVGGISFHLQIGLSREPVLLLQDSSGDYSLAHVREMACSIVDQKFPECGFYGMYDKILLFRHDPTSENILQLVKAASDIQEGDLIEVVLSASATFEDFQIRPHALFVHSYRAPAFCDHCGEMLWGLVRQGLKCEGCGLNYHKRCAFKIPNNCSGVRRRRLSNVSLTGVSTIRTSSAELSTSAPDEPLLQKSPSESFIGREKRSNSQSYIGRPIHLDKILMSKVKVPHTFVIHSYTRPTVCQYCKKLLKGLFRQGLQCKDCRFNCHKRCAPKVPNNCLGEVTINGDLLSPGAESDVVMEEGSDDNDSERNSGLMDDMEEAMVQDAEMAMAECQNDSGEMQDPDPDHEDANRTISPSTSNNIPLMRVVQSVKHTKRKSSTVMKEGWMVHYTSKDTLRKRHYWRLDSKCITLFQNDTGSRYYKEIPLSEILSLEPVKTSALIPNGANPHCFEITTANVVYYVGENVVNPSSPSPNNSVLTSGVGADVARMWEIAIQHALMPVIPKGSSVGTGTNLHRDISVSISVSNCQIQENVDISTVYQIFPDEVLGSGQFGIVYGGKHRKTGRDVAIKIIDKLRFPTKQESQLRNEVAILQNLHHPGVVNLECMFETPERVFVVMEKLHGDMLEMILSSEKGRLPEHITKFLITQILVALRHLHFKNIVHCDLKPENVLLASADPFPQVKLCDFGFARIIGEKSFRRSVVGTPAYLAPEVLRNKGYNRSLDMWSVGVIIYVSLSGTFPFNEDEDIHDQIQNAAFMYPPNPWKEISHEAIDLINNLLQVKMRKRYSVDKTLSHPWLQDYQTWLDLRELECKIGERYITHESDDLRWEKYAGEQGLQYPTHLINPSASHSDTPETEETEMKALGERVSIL
To be noted: 50 nM; read-out: Percent inhibition of kinase activity in vitro, PRKD1 (PKC mu). How it is done: as §1

The target of a further experiment is PTK2 (FAK) (Homo sapiens, UniProt Q05397). Particulars: read-out: Percent inhibition of kinase activity in vitro, PTK2 (FAK); for inhibition at 0.1 µM: 100 nM; for inhibition at 0.5 µM: 500 nM. The method, then: as §1
Another experiment has as its target RAF1 (cRAF) Y340D Y341D (Homo sapiens, UniProt P04049, Y340D/Y341D). Particulars: 500 nM; read-out: Percent inhibition of kinase activity in vitro, RAF1 (cRAF) Y340D Y341D. How it is done:
as §1

Another experiment has as its target RET (Homo sapiens, UniProt P07949). To be noted: read-out: Percent inhibition of kinase activity in vitro, RET; for inhibition at 0.1 µM: 100 nM; for inhibition at 0.5 µM: 500 nM. The method, then:
as §1

For the next experiment, the target named is YES1 (Homo sapiens, UniProt P07947). To be noted: read-out: Percent inhibition of kinase activity in vitro, YES1; for inhibition at 0.1 µM: 100 nM; for inhibition at 0.5 µM: 500 nM. How it is done: as §1
YES1, sequence (P07947 whole entry): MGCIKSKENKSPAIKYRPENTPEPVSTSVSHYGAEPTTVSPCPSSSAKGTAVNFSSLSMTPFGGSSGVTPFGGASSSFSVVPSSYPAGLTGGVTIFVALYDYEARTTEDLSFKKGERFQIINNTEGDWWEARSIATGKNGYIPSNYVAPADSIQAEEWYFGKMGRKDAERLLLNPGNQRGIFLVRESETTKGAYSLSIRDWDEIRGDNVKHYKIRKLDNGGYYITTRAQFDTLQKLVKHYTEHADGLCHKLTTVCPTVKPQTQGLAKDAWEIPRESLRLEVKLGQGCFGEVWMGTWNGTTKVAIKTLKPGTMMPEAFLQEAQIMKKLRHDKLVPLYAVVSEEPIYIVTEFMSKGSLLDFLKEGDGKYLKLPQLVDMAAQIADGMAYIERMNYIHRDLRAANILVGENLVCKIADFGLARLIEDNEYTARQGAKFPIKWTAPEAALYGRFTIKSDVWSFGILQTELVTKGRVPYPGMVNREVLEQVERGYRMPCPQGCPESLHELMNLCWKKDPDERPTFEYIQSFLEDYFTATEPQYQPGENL

ERBB2 (HER2), sequence (P04626 23-1255): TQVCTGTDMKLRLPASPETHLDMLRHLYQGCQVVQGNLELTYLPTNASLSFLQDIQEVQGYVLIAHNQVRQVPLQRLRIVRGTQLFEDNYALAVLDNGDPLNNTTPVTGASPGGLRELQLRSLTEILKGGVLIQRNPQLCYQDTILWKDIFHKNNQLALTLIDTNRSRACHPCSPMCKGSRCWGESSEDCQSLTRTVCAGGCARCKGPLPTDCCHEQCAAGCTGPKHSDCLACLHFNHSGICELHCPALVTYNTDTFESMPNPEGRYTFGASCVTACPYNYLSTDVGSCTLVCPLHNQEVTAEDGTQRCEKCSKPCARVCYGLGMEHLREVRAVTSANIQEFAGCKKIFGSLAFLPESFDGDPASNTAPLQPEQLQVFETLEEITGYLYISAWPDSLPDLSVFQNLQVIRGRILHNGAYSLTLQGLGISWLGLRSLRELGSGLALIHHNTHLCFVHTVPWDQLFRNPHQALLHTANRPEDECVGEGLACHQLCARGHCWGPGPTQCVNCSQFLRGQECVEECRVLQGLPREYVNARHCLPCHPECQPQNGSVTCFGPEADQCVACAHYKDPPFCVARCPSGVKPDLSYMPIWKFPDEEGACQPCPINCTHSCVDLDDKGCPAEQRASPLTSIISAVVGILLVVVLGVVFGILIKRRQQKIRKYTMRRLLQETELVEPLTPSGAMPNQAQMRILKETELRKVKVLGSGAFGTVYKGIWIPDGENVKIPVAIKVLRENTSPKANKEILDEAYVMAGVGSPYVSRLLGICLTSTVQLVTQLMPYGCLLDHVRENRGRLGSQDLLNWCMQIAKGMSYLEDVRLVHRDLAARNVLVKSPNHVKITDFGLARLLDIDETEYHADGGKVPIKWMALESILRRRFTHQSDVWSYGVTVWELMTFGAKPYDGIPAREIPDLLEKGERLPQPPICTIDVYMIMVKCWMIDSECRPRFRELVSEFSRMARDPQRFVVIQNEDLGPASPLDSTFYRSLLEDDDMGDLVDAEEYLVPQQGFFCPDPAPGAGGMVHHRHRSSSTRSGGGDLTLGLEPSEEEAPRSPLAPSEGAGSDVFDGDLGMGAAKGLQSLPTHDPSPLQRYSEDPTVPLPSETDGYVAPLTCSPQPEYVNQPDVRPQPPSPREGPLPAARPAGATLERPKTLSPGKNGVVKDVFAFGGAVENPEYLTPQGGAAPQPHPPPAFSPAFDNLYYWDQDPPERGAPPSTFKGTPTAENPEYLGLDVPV
PIK3CA/PIK3R1, sequence (P42336 whole entry): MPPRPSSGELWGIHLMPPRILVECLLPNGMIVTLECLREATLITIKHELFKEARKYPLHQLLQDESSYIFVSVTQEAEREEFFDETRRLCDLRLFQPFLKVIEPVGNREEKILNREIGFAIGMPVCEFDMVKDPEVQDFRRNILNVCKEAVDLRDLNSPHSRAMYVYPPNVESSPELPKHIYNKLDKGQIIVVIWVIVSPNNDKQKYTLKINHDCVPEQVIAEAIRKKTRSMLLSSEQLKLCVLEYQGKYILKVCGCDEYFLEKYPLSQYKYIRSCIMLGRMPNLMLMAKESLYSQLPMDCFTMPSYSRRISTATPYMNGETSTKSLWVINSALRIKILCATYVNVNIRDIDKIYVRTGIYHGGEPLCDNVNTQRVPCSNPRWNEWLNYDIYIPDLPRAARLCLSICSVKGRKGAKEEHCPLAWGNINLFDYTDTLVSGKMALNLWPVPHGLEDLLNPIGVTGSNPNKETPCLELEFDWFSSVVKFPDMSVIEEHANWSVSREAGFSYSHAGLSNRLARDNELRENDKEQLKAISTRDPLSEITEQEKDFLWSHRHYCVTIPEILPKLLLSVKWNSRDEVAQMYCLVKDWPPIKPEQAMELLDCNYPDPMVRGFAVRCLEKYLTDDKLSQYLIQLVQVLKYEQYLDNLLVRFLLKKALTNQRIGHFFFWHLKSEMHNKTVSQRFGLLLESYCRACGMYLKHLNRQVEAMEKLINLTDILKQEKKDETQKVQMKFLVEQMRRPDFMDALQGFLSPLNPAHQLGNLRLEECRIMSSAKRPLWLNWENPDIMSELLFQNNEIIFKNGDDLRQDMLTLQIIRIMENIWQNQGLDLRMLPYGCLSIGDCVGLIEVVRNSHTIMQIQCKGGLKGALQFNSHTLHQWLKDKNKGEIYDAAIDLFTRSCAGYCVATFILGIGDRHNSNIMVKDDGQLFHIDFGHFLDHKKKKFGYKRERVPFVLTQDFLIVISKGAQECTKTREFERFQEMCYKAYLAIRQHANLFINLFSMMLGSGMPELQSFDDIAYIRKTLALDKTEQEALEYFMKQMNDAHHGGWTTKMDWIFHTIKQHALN
PIK3CA/PIK3R1, sequence (P27986 whole entry partner): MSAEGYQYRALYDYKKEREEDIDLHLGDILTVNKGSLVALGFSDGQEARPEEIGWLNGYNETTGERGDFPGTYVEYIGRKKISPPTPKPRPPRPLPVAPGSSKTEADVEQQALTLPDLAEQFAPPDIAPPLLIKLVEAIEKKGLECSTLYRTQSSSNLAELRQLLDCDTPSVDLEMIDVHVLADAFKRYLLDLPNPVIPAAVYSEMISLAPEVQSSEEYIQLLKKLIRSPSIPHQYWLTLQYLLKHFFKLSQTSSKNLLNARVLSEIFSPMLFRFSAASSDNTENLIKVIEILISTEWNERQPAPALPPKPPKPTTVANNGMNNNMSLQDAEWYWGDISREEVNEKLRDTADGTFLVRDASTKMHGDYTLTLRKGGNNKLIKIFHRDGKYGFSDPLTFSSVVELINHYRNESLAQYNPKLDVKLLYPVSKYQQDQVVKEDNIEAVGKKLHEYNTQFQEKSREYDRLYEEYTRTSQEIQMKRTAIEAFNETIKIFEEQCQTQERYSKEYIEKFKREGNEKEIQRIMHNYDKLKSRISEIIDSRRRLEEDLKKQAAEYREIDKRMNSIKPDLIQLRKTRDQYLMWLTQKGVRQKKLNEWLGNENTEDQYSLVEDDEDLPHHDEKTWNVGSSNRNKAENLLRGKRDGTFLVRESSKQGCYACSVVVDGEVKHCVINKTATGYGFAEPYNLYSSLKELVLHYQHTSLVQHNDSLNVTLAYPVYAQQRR

Turning to `O=c1c2ccccc2[se]n1-c1nc(NC2CCCCC2)c2nc[nH]c2n1` [Compound 1], the inhibition at 0.1 µM at BRAF-ZLYTE-100 came to 1%; on EEF2K, 7%; at EGFR (ErbB1), 1%; on PIK3CA/PIK3R1 it was 0%; on PTK2 (FAK), 5%; on RET it was 5%. Also, the inhibition at 0.1 µM on YES1 stood at 22%. Moreover, the inhibition at 0.5 µM at EEF2K was found to be 11%; on EGFR (ErbB1) it was 0%; at ERBB2 (HER2) it was 0%; at PIK3CA/PIK3R1, 61%; at PTK2 (FAK), 7%; at RAF1 (cRAF) Y340D Y341D it was 4%. Further, the results for the inhibition at 0.5 µM at RET and at YES1 were 23% and 47%, respectively. Also, the inhibition at 0.05 µM on PRKCG (PKC gamma) was determined as 45%; on PRKCI (PKC iota) it was 4%; on PRKD1 (PKC mu), 5%.

For `O=c1c2ccccc2[se]n1-c1nc(NC2CC[Se]C2)c2nc[nH]c2n1` (stereo not shown) [Compound 2], the inhibition at 0.1 µM at BRAF-ZLYTE-100 is 0%; at PIK3CA/PIK3R1 it was 0%; at PTK2 (FAK), 5%; at RET, 6%; on YES1 it was 22%. The inhibition at 0.5 µM at EEF2K is 11%; at EGFR (ErbB1), 0%; on ERBB2 (HER2), 0%; at PIK3CA/PIK3R1, 62%; at PTK2 (FAK), 7%; on RAF1 (cRAF) Y340D Y341D, 0%. The figures for the inhibition at 0.5 µM at RET and on YES1 were 18% and 35%, respectively.

Turning to `C[C@@H]1C(Nc2nc(-n3[se]c4ccccc4c3=O)nc3[nH]cnc23)C[C@H]2C[C@@H]1C2(C)C` (stereo partly shown) [Compound 3], the inhibition at 0.1 µM on BRAF-ZLYTE-100 was 0%; on PIK3CA/PIK3R1 it was 12%; at PTK2 (FAK), 0%; at RET, 5%; at YES1, 17%. The inhibition at 0.5 µM at EEF2K was 5%; at EGFR (ErbB1), 0%; at ERBB2 (HER2) it was 2%; on PIK3CA/PIK3R1, 53%; on PTK2 (FAK) it was 8%; on RAF1 (cRAF) Y340D Y341D, 10%. Also, the values for the inhibition at 0.5 µM at RET and on YES1 were 36% and 53%, respectively.

For the molecule `O=c1c2ccccc2[se]n1-c1nc(N[C@H]2CC[Se]C2)c2nc[nH]c2n1` [Compound 4], the inhibition at 0.1 µM was found to be 0% at BRAF-ZLYTE-100; 10% at EEF2K; 0% at EGFR (ErbB1); 0% on PIK3CA/PIK3R1; 1% on PTK2 (FAK); 10% on RET. On YES1, the inhibition at 0.1 µM amounted to 24%. Besides, the inhibition at 0.05 µM on PRKCG (PKC gamma) was 47%; on PRKCI (PKC iota), 7%; on PRKD1 (PKC mu) it was 7%.

As to `O=C1c2ccccc2CN1c1nc(NC2CCCCC2)c2nc[nH]c2n1` [SLLN-6C, reference compound], the inhibition at 0.1 µM at BRAF-ZLYTE-100 came out at 1%; on EEF2K, 1%; at EGFR (ErbB1), 4%; on PIK3CA/PIK3R1, 0%; on PTK2 (FAK), 3%; on RET, 6%. Also, at YES1, the inhibition at 0.1 µM turned out to be 5%. Also, the values for the inhibition at 0.05 µM at PRKCG (PKC gamma), on PRKCI (PKC iota) and at PRKD1 (PKC mu) were 0%, 7% and 6%, respectively.
